Experiment [1] concerns SRS-A. Briefly: Test Procedure 1: antagonism of SRS-A-induced bronchoconstriction in unanesthetized guinea pigs. The settings on record: for ED50: Cavia porcellus, po, read-out: AED50; for ED50 / Potency (Phenylbutazone = 1) (95% confidence limits): 1 hour before SRS-A; for Potency (Phenylbutazone = 1) (95% confidence limits): p.o. It counts as in vivo, guinea pig.
Experimental: The test compounds were administered orally to four guinea pigs/group 1 hour before the SRS-A challenge. The test compounds were prepared as suspensions in 1% gum tragacanth. Bronchoconstriction was graded 1+ to 3+ according to severity (1+ denoted restlessness and slight thoracic dyspnea, 2+ denoted moderate thoracic dyspnea and 3+ denoted convulsive dyspnea, regardless of whether the guinea pig died of asphyxiation or recovered).
For experiment [2], the system named is SRS-A. The settings on record: guinea pigs; cited from earlier work.
For experiment [3], the system named is bradykinin. The settings on record: guinea pigs; cited from earlier work.
Experiment [4] has as its system serotonin. Conditions: guinea pig, in vivo; cited from earlier work.
The subject of experiment [5] is acetylcholine. The settings on record: guinea pig, in vivo; cited from earlier work.
The test system of experiment [6] is acetylcholine. Briefly: Test Procedure 7: acetylcholine-induced bronchoconstriction in anesthetized guinea pigs. Conditions: 100 mg/kg p.o. It counts as in vivo, guinea pig. On the procedure: Guinea pigs, weighing 250-350 g were anesthetized with 1.5 g/kg i.p. of urethane and prepared for measurements of resistance to pulmonary inflation using a slightly modified Konzett-Rossler preparation (see Test Procedure 2). Histamine phosphate (5 μg/kg as base) was injected four times at 5 minute intervals in order to ascertain that the maximum bronchoconstrictor responsiveness has been obtained. Acetylcholine was injected intravenously at […] 5 minutes following the last injection of histamine and the increase in intratracheal pressure was recorded. Compound b or aminophylline (100 mg/kg p.o.) or the control vehicle were administered to five guinea pigs each, 1 hour before the injection of acetylcholine (1/2 hour before the anesthesia).

For experiment [7], the system named is SRS-A. The experiment can be described thus: Test Procedure 2: inhibition of SRS-A-induced bronchoconstriction in anesthetized guinea pigs (Konzett-Rossler). Format: in vivo, guinea pig. Conditions: for inhibition of SRS-A-induced increases in resistance to inflation: intravenous. An excerpt:
SRS-A was harvested as described in Test Procedure 1 described hereinabove. A slightly modified Konzett-Rossler preparation [Arch. […] Guinea pigs weighing 350 to 450 g were anesthetized ip with 1.5 g/kg urethane. The jugular vein and trachea were cannulated and the guinea pigs were artificially respired at a rate of 40 strokes/minute. […] A side arm of the inflationary air cannula was connected to a pressure transducer and resistance to pulmonary inflation continuously recorded. […] Studies with SRS-A commenced after each guinea pig had attained maximum bronchoconstrictor response to histamine. […] The effects of the test compounds were studied by measuring SRS-A-induced bronchoconstriction side-by-side in two guinea pigs, one medicated and one control. Subsequent medicated/control pairs were alternated on two respiratory pumps. In this manner, the gradual decomposition of SRS-A and differences between the two pump/recorder systems, if any, were controlled. The dose (volume) of each sample of SRS-A was adjusted in each pair to keep the peaks of increases in bronchial resistance in control guinea pigs within 13 to 40 mmHg. Bronchoconstriction following injection of SRS-A was measured two ways; as the peak increase in resistance to inflation and, in view of the occasional irregular bronchoconstriction response curves following injection of SRS-A, as the sum of increases in bronchoconstriction over 10 minutes (pressure/time units). Pressure/time units were calculated by measuring the area under the curve of inflationary resistance where ordinates were set at 10 mm of pen excursion/10 mm pressure Hg and the abscissas were set at 15 mm of paper travel/minute. […] SRS-A-induced bronchoconstriction (increase in resistance) was calculated as the area under the curve and over the normal base line of resistance to inflation. […] The effects of the test compounds upon SRS-A-induced bronchoconstriction were expressed as ratios of the peaks and as ratios of the pressure/time units between the paired medicated and control guinea pigs. The consistency of paired responses to SRS-A in nonmedicated guinea pigs was determined in the same manner, by alternating the ratios of the results of guinea pigs on pumps one and two. […] SRS-A was injected 5 minutes after these latter injections. Compound b was prepared as a solution in 2% N-methylglucamine and used within 3 hours. […] Control guinea pigs received injections of the respective solvent vehicles. In order to compare the activities of compound b following iv and po routes of administration, compound b was also administered orally. […] Control guinea pigs received 2% N-methylglucamine. Fifteen minutes later, the guinea pigs were anesthetized, cannulated, and prepared for injections of SRS-A as described. The procedure was timed so that SRS-A was injected 1 hour after the oral administration of compound b. In a separate experiment, using the same methodology, the duration anti-SRS-A activity of compound b was determined after oral administration. Compound b was finely ground in a tissue homogenizer and prepared as a suspension in 0.5% gum tragacanth. A dose of 10 mg/kg was administered and anti-SRS-A effect studied at 1, 4 and 7 hr postmedication. The ratios of peak increases in intratracheal pressure between paired medicated and control guinea pigs was used to calculate percent inhibition.

The subject of experiment [8] is SRS-A. The experiment can be described thus: Test Procedure 3: SRS-A-induced increase in resistance to pulmonary inflation in anesthetized cats. Format: in vivo, cat. On the procedure: The trachea of each cat was cannulated, and the cats were artificially respired at 15 strokes/minute with a stroke volume of 22 ml/kg. A side-arm of the intratracheal cannula was connected to a Statham transducer, and the intratracheal pressure was recorded continuously on a polygraph. One femoral vein was cannulated in all cats receiving intravenous administration of drugs. In addition, most of the cats were cannulated through the femoral artery; this cannula was attached to another Statham transducer, and the blood pressure of these cats recorded. All cats received 1.0 mg/kg of propranolol and 0.2 mg/kg of thenyldiamine intravenously 3 minutes before iv injection of SRS-A. SRS-A was obtained from rat peritoneal cavities as described previously in Test Procedure 1. Each pool of rat ip fluid containing SRS-A was dose-ranged and a dose selected that was estimated to cause an average increase in intrapulmonary resistance to inflation in control cats by 4-6 mmHg. Test dose volumes ranged from 1.0 to 2.0 ml/kg, iv. […] Both test compounds and the sodium hydroxide vehicle were injected iv 5 minutes before the injections of SRS-A (2 minutes before the injection of propranolol and thenyldiamine).

In experiment [9] the test system is SRS-A. The description is as above. Format: in vivo, cat. This is another data set of the same source.
In experiment [10] the test system is bradykinin.
Experimental: Antagonism of bradykinin-induced bronchoconstriction in guinea pigs was determined by measuring increases in resistance to artificial pulmonary inflation (Konzett-Rossler preparation). […] Due to large variations in bronchoconstricting responses among individual guinea pigs, each guinea pig serves as its own control and was challenged with bradykinin twice. The second response to bradykinin was expressed as percent of the first response to bradykinin. […] All guinea pigs having a first bradykinin response of less than 12 mm Hg were rejected as poor responders. […] In order to augment the bronchoconstrictor response, each guinea pig received 100 mcg propranolol/kg, iv, 5 minutes before the first injection of bradykinin (30 mcg/kg, iv). […] Five minutes after the injection of a test compound the guinea pigs received the second injection of bradykinin and the peak of the response determined. The effects of both test compounds were expressed as % inhibition of bradykinin-induced increase in bronchial resistance to forced inflation, as compared to the levels of bronchial resistance following iv administration of their respective solvent controls.
Experiment [11] concerns serotonin. Briefly: Test Procedure 6: serotonin-induced bronchoconstriction in anesthetized guinea pigs. Format: in vivo, guinea pig. Conditions: iv 5.0 mg/kg; P 0.01. On the procedure: Guinea pigs, weighing 275-340 g, were anesthetized and prepared for measurements of resistance to pulmonary inflation using a slightly modified Konzett-Rossler method (see Test Procedure 2). All guinea pigs received 0.1 mg/kg of propranolol iv and 5 minutes later, 50 mcg/kg of serotonin (creatinine complex) iv. Compound b or cyproheptadine were administered iv just before the injection of propranolol at 50 or 5 mg/kg, respectively. Compound b was prepared as a 5% solution in 5% N-methylglucamine and cyproheptadine as a 0.25% aqueous solution.

SMILES strings stand for the structures. Where two headings read alike, the source gives them in different places.

The source of these data is patent US4174402A, “Method for the prophylaxis of SRS-A-induced symptoms” (priority 1978, dated 1979).

Regarding `Cc1ccc2c(c1)c1c(n2C(=O)c2ccccc2)CCCC1C(=O)O` (stereo not shown) [f, 9-benzoyl-6-methyl-1,2,3,4-tetrahydrocarbazole-4-carboxylic acid], in [1], the ED50 came out at 1.7 mg/kg and the “Potency (Phenylbutazone = 1) (95% confidence limits)” value (shortened to “Potency … (95% confidence limits)”) was 6.7 (3.2-16).

On to `CC(=O)Oc1ccccc1C(=O)O` [aspirin], for which the “effect on SRS-A-induced bronchoconstriction” value in experiment [2] is given as “inhibit”. Further, the “effect on bradykinin-induced bronchoconstriction” value in experiment [3] is recorded as “inhibit”. In addition, in [4], the “effect on serotonin-induced bronchoconstriction” value is “ineffective”. Moreover, in experiment [5], the “effect on acetylcholine-induced bronchoconstriction” value is recorded as “ineffective”.

Take `O=C(O)C1CCCc2c1c1ccccc1n2C(=O)c1ccccc1` (stereo not shown) [c, 9-benzoyl-1,2,3,4-tetrahydrocarbazole-4-carboxylic acid]: in [1], the ED50 was 0.3 mg/kg and the “Potency … (95% confidence limits)” value is reported as 16 (6.9-37).

For the compound `Cc1ccc(C(=O)n2c3c(c4ccccc42)C(C(=O)O)CCC3)cc1` (stereo not shown) [d, 9-(4-toluoyl)-1,2,3,4-tetrahydrocarbazole-4-carboxylic acid], in experiment [1], the ED50 stood at 5 mg/kg and the “Potency … (95% confidence limits)” value is 1.7 (0.6-6.8).

The % Inhibition is the percentage by which the read-out fell short of the control. Low values mean a response near the control, high ones a response far below the control. Take `Cn1c(=O)c2[nH]cnc2n(C)c1=O` [Aminophylline, aminophylline, reference compound]: in [6], the “% Inhibition” value was determined as 70%; the “Peak Increase in Intracheal Pressure, mm Hg” value is 7 ± 1 mm Hg; the “effect against acetylcholine-induced bronchoconstriction” value is “inhibition of acetylcholine responses”.

For `O=C(O)C1CCc2c(c3ccccc3n2C(=O)c2ccccc2)C1` (stereo not shown) [a, 9-benzoyl-1,2,3,4-tetrahydrocarbazole-3-carboxylic acid], in experiment [1], the ED50 is 10 mg/kg and the “Potency … (95% confidence limits)” value is recorded as 1.1 (0.53.8).

In the case of `COc1ccc2c(c1)c1c(n2C(=O)c2ccccc2)CCCC1C(=O)O` (stereo not shown) [e, 9-benzoyl-6-methoxy-1,2,3,4-tetrahydrocarbazole-4-carboxylic acid], in experiment [1], the ED50 amounted to 1 mg/kg and the “Potency … (95% confidence limits)” value was 18 (5.0-86).

As for `CCCCC1C(=O)N(c2ccccc2)N(c2ccccc2)C1=O` [Phenylbutazone, phenylbutazone, reference compound], the “% Inhibition (peak increase in resistance)” value in [7] (i.v. 1.0 mg/kg) worked out at 0%; in experiment [7] (i.v. 3.3 mg/kg), 59%; in experiment [7] (i.v. 10 mg/kg), 72%; in [7] (i.v. 33 mg/kg), 89%. The “% Inhibition (sum of increase in resistance over 10 min)” value was 0% in experiment [7] (i.v. 1.0 mg/kg), 56% in experiment [7] (i.v. 3.3 mg/kg), 81% in [7] (i.v. 10 mg/kg) and 90% in [7] (i.v. 33 mg/kg). Moreover, the “inhibition of SRS-A-induced increases in resistance to inflation” value in experiment [7] is “inhibited SRS-A-induced increases in resistance to inflation in a dose-related manner”; in experiment [7] (10 and 33 mg/kg), “nearly complete inhibition”. The “% Inhibition” value in [8] (intravenous 10.1 mg/kg) is 21%; in [8] (intravenous 33.0 mg/kg) it was 100%; in experiment [9] (oral 10.0 mg/kg), 25%; in experiment [9] (oral 33.0 mg/kg) it was 98%. Besides, the “Max. Increase in Resistance to Pulm. Inflation, mm Hg ± S.E.” value in experiment [8] (intravenous 10.1 mg/kg) is recorded as 4.7 ± 1.5 mm Hg; in experiment [9] (intravenous 33.0 mg/kg), 0 mm Hg; in experiment [9] (oral 10.0 mg/kg), 3.0 ± 0.9 mm Hg; in [9] (oral 33.0 mg/kg), 0.1 ± 0.1 mm Hg. In [8] (intravenous 33 mg/kg), the “inhibition of SRS-A-induced increase in resistance to inflation” value is “complete inhibition”. In addition, the “Incidence of Severe Bronchospasms, %” value in [1] (1.6 mg/kg p.o.) was 62%; in experiment [1] (6.2 mg/kg p.o.), 34%; in experiment [1] (25 mg/kg p.o.) it was 15%; in [1] (100 mg/kg p.o.), 4%. The “Incidence of Severe Bronchospasms, No. Bronchosp./No. Tested” value in experiment [1] (1.6 mg/kg p.o.) is 47/77; in [1] (6.2 mg/kg p.o.) it was 29/86; in [1] (25 mg/kg p.o.), 21/147; in experiment [1] (100 mg/kg p.o.), 2/46. Besides, the ED50 in experiment [9] (Felis catus, 5 min, intravenous, read-out: iv AED50) was found to be 16 mg/kg. Also, the “effect on SRS-A-induced bronchoconstriction” value in experiment [2] is on record as “inhibit”. The “effect on bradykinin-induced bronchoconstriction” value in experiment [3] is on record as “inhibit”. For the same compound, in experiment [4], the “effect on serotonin-induced bronchoconstriction” value is recorded as “ineffective”. Moreover, the “inhibition of bradykinin-induced bronchoconstriction” value in experiment [10] (iv 33 mg/kg, remaining five guinea pigs) is on record as “further dose-related inhibition”. In addition, the “inhibition of bradykinin-induced increase in bronchial resistance” value in experiment [10] (iv 3.3 and 10 mg/kg) was “significantly inhibited”. The “effect on acetylcholine-induced bronchoconstriction” value in experiment [5] is listed as “ineffective”.

Consider `CCCCC1C(=O)N(c2ccccc2)N(c2ccccc2)C1=O` [Na Phenylbutazone], for which the “% Inhibition” value in [10] (iv 1.0 mg/kg) is reported as 20%; in experiment [10] (iv 3.3 mg/kg), 50%; in experiment [10] (iv 10.0 mg/kg), 56%; in experiment [10] (iv 33.0 mg/kg), 50%. For the same compound, the “Average Increase In Bronchial Resistance (2nd Response in % of 1st Response ± S.E.)” value is listed as 64 ± 12% in [10] (iv 1.0 mg/kg), 40 ± 9% in experiment [10] (iv 3.3 mg/kg), 35 ± 11% in experiment [10] (iv 10.0 mg/kg) and 40 ± 7% in experiment [10] (iv 33.0 mg/kg).

As to `CN1CCC(=C2c3ccccc3C=Cc3ccccc32)CC1` [Cyproheptadine, cyproheptadine, reference compound], in experiment [11], the “Increase in Resistance (mm Hg)” value is listed as 5 ± 1 mm Hg and the Inhibition % is 89%.
